≈ marks a conversion by molar mass, not a printed value.
How the values were obtained:
[1] = molecular target: Type-I α-glucosidase (Baker Yeast) (Saccharomyces cerevisiae, UniProt P53341); experiment: In vitro α-glucosidase inhibition assay (PNPG); assay type: biochemical; details: read-out: % α-Glucosidase Inhibition Mean ± SEM
Description: Chemicals such as Tween-80 (Scharlau-chem., Barcelona, Spain), normal saline solution (Utsoka Pharma, Las Bela Baluchistan, Pakistan), lipid profile tests kits (Human, Hamburg, Germany), renal profile tests kits, and antioxidant enzymes kits (Biomed: Germany; diagnostic) were used in in vivo study. Mueller Hinton (MH) agar and broth (Merck, Modderfontein, South Africa) were used to culture the bacterial strains. Various solvents such as methanol, n-hexane, ethyl acetate, and chloroform (Merck, Darmstadt, Germany) were also used in this study.
The α-glucosidase inhibition potential of morin was determined according to the reported method with minor changes. The reaction mixture was prepared by taking 100 μL α-glucosidase (0.5 unit/mL), 600 μL phosphate buffer (0.1 M; pH 6.9), and 50 μL of isolated compounds (morin, phloroglucinol, and 1-hexyl benzene) with serial dilutions of 31.05, 62.5, 125, 250, 500 and 1000 µg/mL. All the reaction mixtures were incubated at 37 °C for 15 min. The enzymatic reactions were started by adding 100 μL substrate (p-nitro-phenyl-α-D-glucopyranoside) solution (5 mM) formed in phosphate buffer (0.1 M; pH 6.9), finally incubated at 37 °C for 15 min. The reaction was completed by adding sodium carbonate (400 μL; 0.2 M) solution and then at 405 nm absorbance was measured. The blank solution was prepared containing only isolated compounds without α-glucosidase. Percent α-glucosidase inhibition potential was calculated using Equation (3): (3) % α − glucosidase Inhibition =control absorbance−sample absorbance/control absorbance×100
All the in vitro and in vivo experiments were analyzed in three replicates and determined as mean ± SEM. Student’s t-test and one way ANOVA followed by Dunnett’s post hoc multiple comparison test was used. p ≤ 0.05 were considered as significant. Linear regression analysis was used to calculate the IC50 value for % DPPH, ABTS, α-amylase, and α-glucosidase inhibition against the different concentrations of the test samples by means of Excel program 2007.

Escherichia coli = experiment: Agar well diffusion, zone of inhibition; assay type: cell-based; details: 37 °C, 24 h; for Zone of Inhibition: 100 µg/mL
Method: (§1) Antibacterial potential of isolated compound was investigated against both Gram-positive and Gram-negative bacterial strains; Escherichia coli, Bacillus cereus, Salmonella typhi, Klebsiella pneumonia, Pseudomonas aeruginosa and Proteus mirabilis. Bacterial strains were provided by the Department of Pharmacy, University of Malakand, Khyber Pakhtunkhwa, Pakistan, and were kept at 4 °C in agar slants in freeze-dried condition until further use.
(§2) Both Gram-positive and Gram-negative bacterial strains Escherichia coli, Bacillus cereus, Salmonella typhi, Klebsiella pneumonia, Pseudomonas aeruginosa and Proteus mirabilis organism viable count per mL in the stock suspension was determined using surface viable counting technique. About 10^8–10^9 colony-forming units (CFU) per mL were used as inoculum in subsequent experiments. A fresh stock suspension was used each time.
(§3) The antibacterial activity of the isolated compounds (morin, phloroglucinol, and 1-hexyl benzene) was determined using agar well diffusion method. Muller–Hinton agar media was prepared and autoclaved at 15 lbs pressure for 20 min and cooled to 45 °C. The standard bacterial stock suspension 10^8–10^9 CFU/mL were spread on Muller–Hinton agar plates and five wells (3 mm in diameter; four on side and one in center) were punched in plates using a sterile cork borer. The entire wells were filled with 100 µL of the isolated compounds (stock solution: 1 mg/mL) using microtiter-pipette and allowed to diffuse at room temperature for 2 h. The plates were incubated at 37 °C for 24 h. In the center hole, Imipenem was added which served as positive control. Simultaneous, addition of an equal concentration of DMSO solvent instead of isolated compounds was used as blank. After incubation, the zones of inhibition were measured in millimeters (mm) and mean values were calculated. The experiments were performed in triplicates.

Klebsiella pneumonia = experiment: Agar well diffusion, zone of inhibition; assay type: cell-based; details: 37 °C, 24 h; for Zone of Inhibition: 100 µg/mL; for zone of inhibition at 100 µg/mL: Klebsiella pneumoniae
Method: as §1, §2, §3

Bacillus cereus = experiment: Agar well diffusion, zone of inhibition; assay type: cell-based; details: 37 °C, 24 h; for Zone of Inhibition: 100 µg/mL
Method: as §1, §2, §3

Proteus mirabilis = experiment: Agar well diffusion, zone of inhibition; assay type: cell-based; details: 37 °C, 24 h; for Zone of Inhibition: 100 µg/mL
Method: as §1, §2, §3

Pseudomonas aeruginosa = experiment: Agar well diffusion, zone of inhibition; assay type: cell-based; details: 37 °C, 24 h; for Zone of Inhibition: 100 µg/mL
Method: as §1, §2, §3

Staphylococcus aureus = experiment: Broth dilution MIC determination; assay type: cell-based; details: 37 °C, 24 h, read-out: Minimum Inhibitory Concentrations
Method: Stock solutions of morin, phloroglucinol, and 1-hexyl benzene were prepared in dimethylsulphoxide (DMSO). […] Sterile centrifuge tubes were arranged in sets of rows for each bacterial inoculum to cover the different concentration of isolated compounds in triplicate. […] A sterility control tube and a growth control tube were also incubated (for each strain). The tubes were incubated at 37 °C for 24 h. After incubation, 40 μL of a 0.4 mg/mL solution of para iodonitrotetrazolium (INT) chloride was added to each tube as an indicator of microbial growth. […] The evaluation for the inhibition of microbial growth was based on the color change of INT to pink, while no color change indicates the absence of growth. The MIC is the lowest concentration of the compounds at which there is no visible growth in the tubes. The concentration that inhibited bacterial growth completely (the first clear tube) was taken as the MIC value. Experiments were performed in triplicate and mean values are presented. […] A negative control experiment was conducted using only DMSO.

Salmonella typhi = experiment: Broth dilution MIC determination; assay type: cell-based; details: Salmonella enterica, 24 h, read-out: Minimum Inhibitory Concentrations

Type-I α-glucosidase (Baker Yeast), sequence (P53341 whole entry): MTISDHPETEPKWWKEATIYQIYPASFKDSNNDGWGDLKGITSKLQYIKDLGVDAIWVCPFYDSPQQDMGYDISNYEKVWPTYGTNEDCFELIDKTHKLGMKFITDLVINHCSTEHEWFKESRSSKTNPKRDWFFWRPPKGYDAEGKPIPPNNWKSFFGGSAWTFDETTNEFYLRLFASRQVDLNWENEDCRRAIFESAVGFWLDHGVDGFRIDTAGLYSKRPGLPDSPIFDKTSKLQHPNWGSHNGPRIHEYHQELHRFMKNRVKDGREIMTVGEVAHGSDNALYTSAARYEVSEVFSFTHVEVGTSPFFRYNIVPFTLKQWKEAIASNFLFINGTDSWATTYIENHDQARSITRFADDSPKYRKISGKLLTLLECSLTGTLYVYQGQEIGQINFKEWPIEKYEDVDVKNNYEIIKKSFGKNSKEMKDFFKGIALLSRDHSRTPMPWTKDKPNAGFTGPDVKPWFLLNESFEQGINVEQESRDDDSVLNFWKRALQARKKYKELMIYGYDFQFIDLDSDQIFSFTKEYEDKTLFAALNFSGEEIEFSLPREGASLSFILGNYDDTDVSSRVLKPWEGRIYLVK

Structure (SMILES)	inhibition at 31.05 µg/mL [1] [%]	inhibition at 62.5 µg/mL [1] [%]	inhibition at 125 µg/mL [1] [%]	inhibition at 250 µg/mL [1] [%]	inhibition at 500 µg/mL [1] [%]	inhibition at 1000 µg/mL [1] [%]	Zone of Inhibition (Escherichia coli) [mm]	zone of inhibition at 100 µg/mL (Escherichia coli) [mm]	Zone of Inhibition (Klebsiella pneumonia) [mm]	zone of inhibition at 100 µg/mL (Klebsiella pneumonia) [mm]	Zone of Inhibition (Bacillus cereus) [mm]	zone of inhibition at 100 µg/mL (Bacillus cereus) [mm]	Zone of Inhibition (Proteus mirabilis) [mm]	zone of inhibition at 100 µg/mL (Proteus mirabilis) [mm]	Zone of Inhibition (Pseudomonas aeruginosa) [mm]	zone of inhibition at 100 µg/mL (Pseudomonas aeruginosa) [mm]	MIC (Staphylococcus aureus) [µg/mL]	MIC (Salmonella typhi) [µg/mL]
CCCCCCc1ccccc1 [1-Hexyl benzene, 1-hexylbenzene]	28 ± 1.2	32 ± 0.4	39 ± 1.1	45 ± 0.5	50 ± 1.2	58 ± 2.1	9.3 ± 1.1	9.3 ± 1.1	6.3 ± 0.5	6.3 ± 0.5	8.5 ± 0.1	8.5 ± 0.1	4.5 ± 1.5	4.5 ± 1.5	5.5 ± 0.5	5.5 ± 0.5	205 ± 2.1 (≈ 1260 µM)	112 ± 1.6 (≈ 690 µM)
O=c1c(O)c(-c2ccc(O)cc2O)oc2cc(O)cc(O)c12 [Morin, 2-(2,4-Dihydroxyphenyl)-3,5,7-trihydroxychromen-4-one]	42 ± 1.4	48 ± 0.3	52 ± 0.5	59 ± 1.4	66 ± 0.4	79 ± 1	19 ± 1.1	19 ± 1.1	15 ± 0.5	15 ± 0.5	17 ± 0.1	17 ± 0.1	11 ± 1.5	11 ± 1.5	14 ± 0.5	14 ± 0.5	68 ± 1.3 (≈ 225 µM)	28 ± 1 (≈ 92.6 µM)
Oc1cc(O)cc(O)c1 [Phloroglucinol, Benzene-1,3,5-triol]	27 ± 1	30 ± 1.4	37 ± 1.5	43 ± 0.4	48 ± 0.5	55 ± 2.1	15 ± 0.3	15 ± 0.3	11 ± 0.5	11 ± 0.5	13 ± 1.2	13 ± 1.2	7.5 ± 0.2	7.5 ± 0.2	10 ± 1.1	10 ± 1.1	192 ± 2.3 (≈ 1520 µM)	175 ± 2 (≈ 1390 µM)

Reference: paper PMC8348310, “Antioxidants Isolated from Elaeagnus umbellata (Thunb.) Protect against Bacterial Infections and Diabetes in Streptozotocin-Induced Diabetic Rat Model” (Molecules, 2021)
